Test results published in EP2556062B1, “AMIDE DERIVATIVES OF AVENALUMIC ACID, PROCESS FOR PREPARING SAME AND COSMETIC COMPOSITIONS CONTAINING SAME” (Produits Chimiques Auxiliaires et de Synthese, priority 2010, dated 2011).

Legend:
[1] = DPPH radical scavenging test (free-radical trapping); format: biochemical; conditions: DPPH 0,5mM, 37°C, 30 minutes, absorbance at 517 nm; for % inhibition (C=25µM): compound 25µM; for % inhibition (C=80µM): compound 80µM; for % inhibition (C=): compound
Procedure: Cette étude mesure l'activité antiradicalaire d'un composé par capture du radical DPPH. Ce test est largement utilisé pour étudier la capacité d'un composé à donner un hydrogène.
L'activité se traduit par une décoloration du DPPH (violet). L'absorbance (densité optique DO) a été mesurée à 517 nm au bout de trente minutes sur un spectrophotomètre UV-visible thermostaté à 37°C. Le résultat est exprimé en pourcentage d'inhibition déterminé par la formule : [formula]
Cette activité a été comparée à celle des produits de référence vitamine E, acide férulique et vinylogue de l'acide férulique [dérivé (17)].

[2] = Auto-oxidation by the ferric thiocyanate (FTC) method: AAPH-induced lipid peroxidation of linoleic acid; format: biochemical; conditions: 25 micromoles; absorbance at 500nm versus time over five hours; activity not superior to that of acide férulique
Description: Cette méthode met en évidence la capacité de capter le radical peroxyle par le dérivé à tester. La méthode est basée sur une peroxydation lipidique de l'acide linoléique, émulsionné par le Tween 20®.
Cette peroxydation est réalisée par action d'un initiateur de radicaux libres, le dihydrochlorhydrate de 2,2'-azobis(2-amidino)propane (AAPH). Le radical peroxyle formé réagit avec le dérivé à tester et conduit à la formation d'un hydroperoxyde et d'un radical alkoxyle ArO˙. Ce dernier réagit avec le radical peroxyle et permet la formation de produits non radicalaires.
Par ailleurs, les radicaux peroxyle continuent d'oxyder le substrat (l'acide linoléique) pour former également un hydroperoxyde. Cet hydroperoxyde oxyde le fer ferreux présent in situ pour conduire à la formation de fer ferrique Fe^3+ qui se complexe à l'anion thiocyanate.
Le complexe rouge de thiocyanate ferrique formé absorbe à 500nm.
Le degré d'oxydation est quantifié par l'absorbance mesurée. L'activité antioxydante du dérivé à tester est donc la capacité à retarder la peroxydation lipidique. Plus la durée pour atteindre le maximum d'absorbance est longue, plus l'antioxydant est puissant.
Cette étude est réalisée sur une période de cinq heures avec un intervalle de temps d'une heure. Le résultat est exprimé par l'absorbance en fonction du temps. La concentration des molécules dans le milieu est de 25 micromoles.

Row | Compound | % inhibition (C=25µM) [1] | % inhibition (C=80µM) [1] | % inhibition (C=) [1] | activité antioxydante [2]
1 | COc1cc(/C=C/C(=O)O)ccc1O [Acide férulique, reference compound] | 50% | 78% | 61% | 
2 | Cc1c(C)c2c(c(C)c1O)CC[C@@](C)(CCC[C@H](C)CCC[C@H](C)CCCC(C)C)O2 [Vit.E, vitamine E, reference compound] | 41% | 92% | 86% | 
3 | COC(=O)c1scc(C)c1NC(=O)/C=C/c1ccc(O)c(OC)c1 [compound 3, 3-{[(2E)-3-(4-hydroxy-3-méthoxyphényl)prop-2-ènoyl]amino}-4-méthylthiophène-2-carboxylatede méthyle] | 45% | 72% | 48% | ont une activité antioxydante
4 | COc1cc(/C=C/C(=O)Nc2c(C)csc2C(=O)O)ccc1O [compound 4, Acide 3-{[(2E)-3-(4-hydroxy-3-méthoxyphényl)prop-2-ènoyl]amino}-4-méthylthiophène-2-carboxylique] | 41% | 50% | 31% | ont une activité antioxydante
5 | COc1cc(/C=C/C=C/C(=O)O)ccc1O [compound 17, Acide (2E,4E)-5-[4-hydroxy-3-méthoxyphényl]penta-2,4-diénoique, reference compound] | 62% | 81% | 65% | 
6 | COC(=O)c1scc(C)c1NC(=O)/C=C/C=C/c1ccc(O)c(OC)c1 [compound 21, 3-{[(2E,4E)-5-(4-hydroxy-3-méthoxyphényl)penta-2,4-diènoyl]amino}-4-méthylthiophène-2-carboxylatede méthyle] | 68% | 93% | 74% | ont une activité antioxydante
7 | COc1cc(/C=C/C=C/C(=O)Nc2c(C)csc2C(=O)O)ccc1O [compound 22, Acide 3-{[(2E,4E)-5-(4-hydroxy-3-méthoxyphényl)penta-2,4-diènoyl]amino}-4-méthylthiophène-2-carboxylique] | 50% | 73% | 54% | ont une activité antioxydante
